≈ marks a conversion by molar mass, not a printed value. Like-named read-outs stand apart in the source and are kept apart here.
How the values were obtained:
Type in all cases: cell-based
HIV-1 HXB2D = assay: IC50 in CBMCs with constructed virus HXB2D
Method: (§1) In short, viruses (HTLV-IIIB) that had initially been grown on MT-4 cells were passaged onto phytohemaglutinin-prestimulated cord blood mononuclear cells (CBM). For subsequent analysis, samples of CBM (5×10^5 cells per mL) were pretreated with various concentrations of the different compounds for 4 h and were then inoculated with CBL-grown HIV-1 at a multiplicity of infection of 1.0 in the concentration of the compound used for the pretreatment. Fresh medium, including the appropriate concentration of the compound was added three times weekly, and fresh phytohemaglutinin-prestimulated CBM (5×10^5 cells per mL) were added at 2-day intervals. The calculation of IC50 was determined on the basis of RT levels in culture fluids as described in Gao et al., (1992), J. Virol. 66: 12-19.
(§2) Determination of IC50 (μM) in Different Mutated Isolates of HIV-1 in the Presence of Different Antiviral Compounds
(§3) The procedure is similar to the procedure used in the CBM assay, with the exception that constructed virus and construted mutated virus were used.
(§4) The constructed virus HXB2D-65 correspond to the ddC resistance mutation and the constructed virus HXB2D-184 correspond to the 3TC™ and FTC resistance mutation.

[1] = tested on: HIV-1 HXB2D-184 M→V (3TC™ and FTC resistance mutation); assay: IC50 in CBMCs with constructed mutated virus HXB2D-184
Method: as §1, §2, §3, §4

HIV-1 IIIB = assay: IC50 in CBMCs with HIV-1 isolate IIIB
Method: as §1, §2, §3

[2] = tested on: HIV-1 HXB2D-65 K→R (ddC resistance mutation); assay: IC50 in CBMCs with constructed mutated virus HXB2D-65
Method: as §1, §2, §3, §4

[3] = tested on: 2.2.15 cells (Hep G2 cells transfected with human hepatitis B virus genomic DNA); assay: Cytotoxicity (CD50) reported with HBV assay; settings: HBV table
Method: (§5) The method used for this test is described in detail in Korba et al., Antiviral research 15, 217-228 (1992) which is shortly described as follows: Hep G2 cells transfected with human hepatitis B virus genomic DNA (2.2.15 cells) were grown and maintained in RPMI-1640 culture medium containing %5 foetal bovine serum, 2 mM glutamine and 50 μg/ml gentamicin sulphate, and checked routinely for G418 resistance. Cultures of 2.2.15 cells were grown to confluence in 24 well tissue culture plates and maintained for 2 to 3 days in that condition prior to drug treatment.

HIV-1 (HTLV-IIIB) = assay: CBM assay, IC50 from RT levels in culture fluids; settings: Human immunodeficiency virus 1
Method: Assays on cord blood mononuclear cells were done substantially as described in Gu et al., J. Virol. (1992), 66:7128-7135.
as §1

HIV-1 strain RF = assay: Formazan (MTT) assay on MT-4 cells, anti-HIV-1 antiviral activity; settings: Human immunodeficiency virus 1, MT4, 168 h, MT-4 cells infected with HIV-1 strain RF, 7 days, read-out: IC50 (50% anti-viral dose, ID 50%)
Method: Formazan Assay on MT-4 and 3TC™-Resistant Cell Lines
(§6) Anti-HIV-1 antiviral activity was determined in MT-4 calls and MT-4 cells that have been made resistant to 3TC™. A suspension of cells (approximately 10^6 cells/ml) in RPMI 1640 growth medium was infected with HIV-1 strain RF at a M.O.I. of 10^−3 infectious units/cell. An uninfected cell suspension was prepared in parallel to evaluate drug-induced cytotoxicity. The two suspensions were incubated for 90 minutes at room temperature. Test compounds were serially diluted in 10-fold decrements from 100 μg/ml to 0.01 μg/ml (final concentrations in two 96 well microtitre plates. 20 μl of infected cell suspension were inoculated into each well of one of the plates (anti-viral), while 20 μl of uninfected cell suspension were added to each well of the second plate (cytotoxicity). The plates were then incubated for 7 days at 37° C. After incubation, 10 μl of 3-(4,5-dimethylthiazol-2-yl)-2,5-diphenyltetrazolium bromide (MTT) at 20 mg/ml was added to all wells and the plates incubated for a further 90 minutes at 37° C.
150 μl of 10% (v/v) alcoholic Triton X-100 was then added and the cells resuspended. After 15 minutes at room temperature, the plates were analyzed in a Multiskan MC reader at 405 nm. Conversion of yellow MMT to its formazan derivative is maximum in uninfected cells, and absent in untreated infected cells. The optical density values for the cytotoxicity controls and the antiviral test wells were graphically plotted and the dose of compounds required to inhibit the conversion of MMT to 50% of the untreated uninfected controls was calculated. In this way, both the 50% cytotoxic dose (CD 50%) and the 50% anti-viral dose (ID 50%) can be calculated.

[4] = tested on: cord blood mononuclear cells (CBM); assay: Cytotoxicity (CD50) reported with CBM assay
Method: Assays on cord blood mononuclear cells were done substantially as described in Gu et al., J. Virol.
as §1, with “The calculation of IC50 was determined on the basis of RT levels in culture fluids as described in Gao et al., (1992), J. Virol.” left out

MT-4 cells = assay: Formazan (MTT) assay, drug-induced cytotoxicity in uninfected MT-4 cells; settings: human, 7 days
Method: as §6, with “A suspension of cells (approximately 10^6 cells/ml) in RPMI 1640 growth medium was infected with HIV-1 strain RF at a M.O.I. of 10^−3 infectious units/cell.” left out
150 μl of 10% (v/v) alcoholic Triton X-100 was then added and the cells resuspended. After 15 minutes at room temperature, the plates were analyzed in a Multiskan MC reader at 405 nm. […] The optical density values for the cytotoxicity controls and the antiviral test wells were graphically plotted and the dose of compounds required to inhibit the conversion of MMT to 50% of the untreated uninfected controls was calculated.

human hepatitis B virus = assay: Inhibition of human hepatitis B virus in 2.2.15 cells, extracellular HBV DNA; settings: 10 day treatment
Method: Inhibition of Human Hepatitis B Virus.
as §5
Drugs were dissolved in sterile water or sterile 50% DMSO in water at concentrations 100-fold higher than the higher test concentration. These solutions were diluted as needed in culture medium.
The culture medium on the confluent cells was changed 24 hours prior to exposure to test compounds. During the 10 day treatment, the culture medium was changed daily. After 10 days of the treatment, the culture medium was collected and frozen at −70° C. for HBV DNA analysis. […]
A purified 3.2 kb EcoR1 HBV DNA fragment was labeled with [^32p]dCTP by nick translation and used as a probe to detect HBV DNA on the dot-blot by DNA hybridization. After washing, the hybridized blot was dried and ^32p was quantified using an Ambis beta scanner.

CBMCs = assay: Cell culture inhibitory dose (CCID50) in CBMCs; settings: cell counting, trypan blue exclusion, 7 days post drug treatment
Method: (§7) Evaluation of Cell Culture Inhibitory Dose (CCID50)
(§8) Cell growth was determined by cell counting and viability by trypan blue exclusion 7 days post drug treatment. CCID50 is expressed as the drug concentration which inhibits 50% of cell growth.

HTLV-IIIb = assay: HIV-1 acutely infected cell lines, p24 antigen levels; settings: p24 antigen at day 6; for ID50 CEM: CEM cells infected with HTLV-IIIb; for ID50 H9: H9 cells infected with HTLV-IIIb; for ID50 Jurkat: Jurkat cells infected with HTLV-IIIb; for ID50 MT-4: MT-4 cells infected with HTLV-IIIb; for ID50 U937: U937 cells infected with HTLV-IIIb
Method: Determination of IC50 ([…]) in HIV-1 Acutely Infected Cell Lines in the Presence of Differet Antiviral Compounds
Various cell lines were infected with HTLV-IIIb (TCID50=200) and then cultured with various concentrations of drug. IC50 was determined by measuring p24 antigen levels in the supernatant of cultures at day 6 of infection.

U937 = assay: Cell culture inhibitory dose (CCID50) in U937; settings: cell counting, trypan blue exclusion, 7 days post drug treatment
Method: as §7, §8

CEM = assay: Cell culture inhibitory dose (CCID50) in CEM; settings: cell counting, trypan blue exclusion, 7 days post drug treatment
Method: as §7, §8

Jurkat = assay: Cell culture inhibitory dose (CCID50) in Jurkat; settings: cell counting, trypan blue exclusion, 7 days post drug treatment
Method: as §7, §8

MT-4 = assay: Cell culture inhibitory dose (CCID50) in MT-4; settings: cell counting, trypan blue exclusion, 7 days post drug treatment
Method: as §7, §8

H9 = assay: Cell culture inhibitory dose (CCID50) in H9; settings: cell counting, trypan blue exclusion, 7 days post drug treatment
Method: as §7, §8

[5] = Human immunodeficiency virus 1, read-out: IC50 HXB2D
[6] = Human immunodeficiency virus 1, read-out: IC50 HXB2D-184 M→V
[7] = Human immunodeficiency virus 1, read-out: IC50 HXB2D-65 K→R

Nc1ccn([C@@H]2CS[C@H](CO)O2)c(=O)n1 [3TC ™, reference compound]
IC50 (HIV-1 HXB2D; CBMCs, constructed virus HXB2D, read-out: IC50 HXB2D): 80 nM | IC50 ([1]; CBMCs, 3TC™ and FTC resistance mutation, read-out: IC50 HXB2D-184 M→V): 42500 nM | IC50 (HIV-1 IIIB): 10 nM | IC50 ([2]; CBMCs, ddC resistance mutation, read-out: IC50 HXB2D-65 K→R): 125 nM

Nc1ccn(C2COC(CO)S2)c(=O)n1 (stereo not drawn) [BCH-270, Cis- and Trans-2-hydroxymethyl-4-(cytosin-1′-yl)-1,3-oxathiolane]
CD50 (HBV) [3]: >10 µg/mL | IC50 (HIV-1 (HTLV-IIIB)): 0.03 µg/mL (≈ 0.131 µM) | IC50 (HIV-1 strain RF): 4 µg/mL (≈ 17.4 µM) | CD50 [4]: >23 µg/mL | CD50 (50% cytotoxic dose) (MT-4 cells): >100 µg/mL | ID50 (HBV) (human hepatitis B virus): 7.5 µg/mL (≈ 32.7 µM)

Nc1ccn([C@H]2CO[C@@H](CO)S2)c(=O)n1 [Compound #1, 2R-hydroxymethyl-4R-(cytosin-1′-yl)-1,3-oxathiolane]
IC50 (HIV-1 HXB2D; [5]): 1000 nM | IC50 [1, 6]: 530 nM | IC50 (HIV-1 (HTLV-IIIB)): 0.05 to 1.22 µg/mL (≈ 0.218 to 5.32 µM) | CCID50 CBMCs (CBMCs): >500 µM | ID50 CEM (HTLV-IIIb): 0.2 µg/mL (≈ 0.872 µM) | ID50 H9 (HTLV-IIIb): 0.3 µg/mL (≈ 1.31 µM) | ID50 Jurkat (HTLV-IIIb): 3.0 µg/mL (≈ 13.1 µM) | ID50 MT-4 (HTLV-IIIb): 2.8 µg/mL (≈ 12.2 µM) | ID50 U937 (HTLV-IIIb): 0.4 µg/mL (≈ 1.74 µM) | CCID50 U937 (U937): >500 µM | IC50 (HIV-1 strain RF): 13 µg/mL (≈ 56.7 µM) | CCID50 CEM (CEM): >500 µM | CD50 [4]: >23 µg/mL | CCID50 Jurkat (Jurkat): 450 µM | IC50 (HIV-1 IIIB; Human immunodeficiency virus 1): 220 nM | CCID50 MT-4 (MT-4): >500 µM | CD50 (50% cytotoxic dose) (MT-4 cells): >100 µg/mL | IC50 [2, 7]: 2500 nM | CCID50 H9 (H9): >500 µM

Cc1cn([C@H]2C[C@H](N=[N+]=[N-])[C@@H](CO)O2)c(=O)[nH]c1=O [AZT, 3′-azido-3′-deoxythymidine, reference compound]
IC50 (HIV-1 HXB2D; [5]): 2 nM | IC50 [1, 6]: 1 nM | IC50 (HIV-1 (HTLV-IIIB)): < 0.002 µg/mL | CCID50 CBMCs (CBMCs): 45 µM | ID50 CEM (HTLV-IIIb): 0.01 µg/mL (≈ 0.0374 µM) | ID50 H9 (HTLV-IIIb): 0.07 µg/mL (≈ 0.262 µM) | ID50 Jurkat (HTLV-IIIb): 0.01 µg/mL (≈ 0.0374 µM) | ID50 MT-4 (HTLV-IIIb): 0.005 µg/mL (≈ 0.0187 µM) | ID50 U937 (HTLV-IIIb): 0.04 µg/mL (≈ 0.15 µM) | CCID50 U937 (U937): 110 µM | IC50 (HIV-1 strain RF): 0.01 µg/mL (≈ 0.0374 µM) | CCID50 CEM (CEM): 500 µM | CCID50 Jurkat (Jurkat): >500 µM | IC50 (HIV-1 IIIB; Human immunodeficiency virus 1): 2 nM | CCID50 MT-4 (MT-4): 110 µM | IC50 [2, 7]: 1 nM | CCID50 H9 (H9): 200 µM

Reference: patent US6369066B1, “Substituted 1,3-oxathiolanes with antiviral properties” (BioChem Pharma, Inc., priority 1990, dated 2002)
